For series [1], the system named is Mus musculus. In words: Anticonvulsant activity in mouse assessed as protection against electroshock-induced maximal seizure effect up to 100 mg/kg, po administered via gavage 2 hrs prior to electroshock stimulation. The class given is functional, organism-based. Also noted: dose 100 mg/kg.
The subject of series [2] is Mus musculus. Kind of series: Anticonvulsant activity in po dosed mouse assessed as protection against electroshock-induced maximal seizure effect administered via gavage 2 hrs prior to electroshock stimulation. Conditions: for ED50: Mus musculus, po. Type of series: functional.
A further series relates to Rattus norvegicus. In words: Induction of diuretic activity in po dosed rat assessed as increase in urine output after 4 hrs. The class given is organism-based.
Series [3] can be described thus: Elimination half life in iv dosed dog plasma. The class given is ADME, organism-based, Canis lupus familiaris. Conditions: read-out: beta t1/2 (converted).
Series [4] can be described thus: Octanol-water partition coefficient, log P of the compound. Type of series: physicochemical.
Series [5] is described as follows: Dissociation constant, pKa of the compound. Type of series: physicochemical.
The nature of series [6]: Protein binding in plasma (unknown origin). Type of series: ADME, cell-free. The conditions noted are these: unidentified, read-out: PPB (converted).

Active and inactive are the calls of the source. The rule behind the calls is not given here.

The record followed here is ChEMBL document CHEMBL3244278, “Cerebrovasodilatation through selective inhibition of the enzyme carbonic anhydrase. 1. Substituted benzenedisulfonamides” (J Med Chem, 1978).

With `COC1CCN(S(=O)(=O)c2c(Cl)cc(S(N)(=O)=O)cc2Cl)CC1`, in the series with Mus musculus [1], the result was inactive.
Same read-out and setting: in the case of `NS(=O)(=O)c1ccc(S(=O)(=O)N2CCOCC2)cc1C(F)(F)F` it was “inactive”; in that of `NS(=O)(=O)c1ccc(S(=O)(=O)N2CCC3(CC2)NC(=O)NC3=O)cc1Cl`, “inactive”; in that of `NS(=O)(=O)c1cc(Cl)c(S(=O)(=O)N2CCOCC2)c(Cl)c1`, “inactive”.
`COC1CCN(S(=O)(=O)c2cc(C)c(S(N)(=O)=O)c(C)c2)CC1`: the outcome in the series on Mus musculus [1] was inactive.
Same read-out and setting: in the case of `COC1(C)CCN(S(=O)(=O)c2ccc(S(N)(=O)=O)cc2)CC1` it was “inactive”.
As for `CC(=O)C1CCN(S(=O)(=O)c2ccc(S(N)(=O)=O)cc2)CC1`, in the series on Mus musculus [1], the result was inactive.
As for `NS(=O)(=O)c1ccc(S(=O)(=O)N2CCC(O)(c3ccccn3)CC2)cc1`, the ED50 (commonly the midpoint of the dose-response relation) with Mus musculus [2] came to 40 mg/kg.
In the case of `COC1CCN(S(=O)(=O)c2ccc(S(N)(=O)=O)c(C(F)(F)F)c2)CC1`, the outcome in the series with Mus musculus [1] was inactive.
The same measure, in the same setting: as for `COC1CCN(S(=O)(=O)c2cc(Cl)c(S(N)(=O)=O)cc2C)CC1`, the entry is “inactive”.
In the case of `CC(=O)Nc1nnc(S(N)(=O)=O)s1` [ACETAZOLAMIDE], the ED50 in the series on Rattus norvegicus came out at 5 mg/kg. In addition, the Activity in the series with Mus musculus [2] is 36 mg/kg.
Take `COC1CCN(S(=O)(=O)c2ccc(S(N)(=O)=O)c(Cl)c2)CC1` [UK-12130]: in series [3], the half-life is 180 min. Besides, the logP (in general, the decadic logarithm of the partition coefficient of the neutral form, usually between octanol and water) in series [4] came out at 0.62.
For the molecule `NS(=O)(=O)c1nnc(NS(=O)(=O)c2ccccc2)s1` [BENZOLAMIDE], the pKa – broadly, the pH at which an ionisable group is half protonated – in series [5] was 3.2. In series [6], the fraction unbound is 0.08.
Regarding `CN1CN(c2ccccc2)C2(CCN(S(=O)(=O)c3ccc(S(N)(=O)=O)cc3)CC2)C1=O`, in the series with Mus musculus [2], the ED50 was greater than 40 mg/kg.
